# From article PMC12728655, “Engineering an Artificial Myxopyronin Derivative with Enhanced Metabolic Stability via Mutasynthesis” (JACS Au, 2025)
# Read-outs that look alike come from different tables or passages of the source.
# Assays:
# [1] = Metabolic stability in liver microsomes; conditions: Wistar, rat
# Cytotoxicity assay (MTT) = type: cell-based; conditions: human, HepG2 cells, HepG2, 100 μM
# Description: (§1) by addition of 10 µL plasma to samples taken from PBS and vice versa. Samples were stored on ice until the end of the incubation and precipitated protein was removed by centrifugation (15 min, 4 °C, 4,000 g, 2 centrifugation steps). Concentration of the remaining test compound at the different time points was analyzed by HPLC-MS/MS (Vanquish Flex coupled to a TSQ Altis Plus, Thermo Fisher, Dreieich, Germany). The amount of compound bound to protein was calculated using the equation PPB [%] = 100 – 100 x (amount in buffer chamber/amount in […]
# To obtain information regarding the toxicity of test compounds, their impact on the viability of human cells was investigated. HepG2 cells (2x10^4 cells per well) were seeded in 96-well, flat-bottomed culture plates in 100 µL culture medium (DMEM containing 10% fetal calve serum, 1% penicillin-streptomycin). Twenty-four hours after seeding the cells, medium was removed and replaced by medium containing test compounds in a final DMSO concentration of 1%.
# Compounds were tested in duplicates at a single concentration or, for CC 50 determination, at 8 concentrations that were prepared via 2-fold serial dilutions in 1% DMSO/medium. Epirubicin and doxorubicin were used as positive controls in serial dilutions starting from 10 µM, and rifampicin was used as a negative control (at 100 µM). […]
# wt-M. tuberculosis H37Rv = assay: microbe, parasite or virus in culture; type: cell-based; conditions: Mycobacterium tuberculosis
# in vitro [2] = conditions: C57BL/6, mouse, microsomes
# in vitro [3] = type: in vitro ADME; conditions: Wistar, rat, plasma
# Description: (§2) To determine stability in plasma, the compound (1 µM) was incubated with pooled CD-1 mouse/human or Wistar rat plasma (Neo Biotech, Nanterre, France). Samples were taken by […]
# (§3) 10% methanol/acetonitrile). The plasma stability of procain, propantheline and diltiazem were determined in parallel to confirm the enzymatic activity. Samples were stored on ice until the end of the incubation and precipitated protein was removed by centrifugation (15 min, 4 °C, 4,000 g, two centrifugation steps). Concentration of the remaining test compound at the different time points was analyzed by HPLC-MS/MS (Vanquish Flex coupled to a TSQ Altis Plus, Thermo Fisher, Dreieich, Germany). The plasma stability of procain, propantheline and diltiazem were determined in parallel to confirm the enzymatic activity. […]
# in vitro [4] = type: in vitro ADME; conditions: mouse, hepatocytes
# Description: Metabolic stability in mouse hepatocytes
# For the evaluation of combined phase I and phase II metabolic stability, the compound (1 μM) was incubated with 0.25 x 10^6 cells/mL of pooled mouse hepatocytes (Xenotech, Kansas City, USA). Cells were thawed in Leibovitz’s L-15 medium without phenol red (ThermoFisher Scientific, Waltham, USA). Briefly, cells were transferred into 50 mL of medium, followed by centrifugation at 55 g for 3 min. Supernatant was discarded and the cell count determined after gently resuspending the cell pellet in 1 mL of medium. Hepatocytes were diluted to 0.5 x 10^6 cells/mL and incubated at 37 °C, 700 rpm for 10 min, to achieve the desired final cell count after addition of an equal volume of test compounds in medium, leading to final test concentration of 1 µM at 1% DMSO. Samples were incubated at 37 °C, for 240 min, 700 rpm and the incubation was stopped after defined time points by precipitation of aliquots in 4 […]
# methanol/acetonitrile). The metabolic stability of testosterone, verapamil, ketoconazole and 7-hydroxycoumarine were determined in parallel to confirm the enzymatic activity of mouse hepatocytes. Samples were stored on ice until the end of the incubation and precipitated protein was removed by centrif ugation (15 min, 4 °C, 4. 000 g). […]
# M^R -S. aureus N315 = assay: microbe, parasite or virus in culture; type: cell-based; conditions: Staphylococcus aureus
# [5] = Wistar, rat, microsomes, 2 h, 1 µM
# in vitro [6] = conditions: Wistar, rat, microsomes
# in vitro [7] = conditions: human, microsomes, Liver microsomes Clint
# wt-S. aureus Newman = type: cell-based; conditions: Staphylococcus aureus
# M^R/V^R-S. aureus Mu50 = assay: microbe, parasite or virus in culture; type: cell-based; conditions: Staphylococcus aureus
# in vitro [8] = type: in vitro ADME; conditions: plasma
# Description: Figure S6: Metabolic stability in human liver microsomes with CYP isozyme involvement. (A) Human microsomal metabolism of MXY A (1) and (B) for MXY (8) in presence of 10 µM CYP inhibitors for CYP3A4 (ketoconazole), CYP1A2 (fluvoxamine), CYP2C9 (sulfaphenazole) or CYP2D6 (quinidine). The remaining test compound compared to t=0 min is given. (C) Corresponding half-lives (t1/2s) and fold increase compared to t1/2 of the compound in absence of inhibitors. Values represent means ± standard deviation (SD) of at least 3 independent measurements. *Mean half-life in presence of DMSO represents only assays where direct comparison to CYP inhibitors was performed; Table 2 of the main text includes additional replicates.
# as §2, §3
# Rif^R-S. aureus Newman = assay: microbe, parasite or virus in culture; type: cell-based; conditions: Staphylococcus aureus
# in vitro [9] = type: in vitro ADME; conditions: plasma, pH 7.4
# Description: Plasma protein binding was determined using the Rapid Equilibrium Dialysis (RED) system (Thermo Fisher Scientific, Waltham MA, USA). Compounds were diluted to 10 µM in 50% murine (CD-1), human or Wistar rat plasma (Neo Biotech, Nanterre, France) in PBS pH 7.4 and added to the respective chamber according to the manufacturer’s protocol, followed by addition of PBS pH 7.4 to the opposite chamber. Samples were taken immediately after addition to the plate as well as after 2, 4 and 5 h by mixing 10 µL with 80 µL ice-cold ice-cold […]
# (1 picture or pasted object on this page, not shown here) […]
# as §1, with “Germany).” for “Germany). The amount of compound bound to protein was calculated using the equation PPB [%] = 100 – 100 x (amount in buffer chamber/amount in”
# Germany). To obtain percent viability for each sample, their ODs were related to those of DMSO controls. At least three independent measurements were performed for each compound. The calculation of CC50 was performed using the nonlinear regression function of GraphPad Prism 10 (GraphPad Software, San Diego, CA, USA).
# E. faecalis DSM-20478 = type: cell-based; conditions: Enterococcus faecalis, DSM20478
# [10] = Metabolic stability in liver microsomes; conditions: C57BL/6, mouse
# [11] = Metabolic stability in liver microsomes; conditions: human
# E. coli ΔtolC = assay: microbe, parasite or virus in culture; type: cell-based; conditions: Escherichia coli
# [12] = Stability during large-scale production and isolation; conditions: large-scale production, also with exclusion of light
# Description: We initially attempted the large-scale production of furan analog 14.
# [13] = human, 1 µM
# [14] = stated as known, reference not given; cited from earlier work
Structure (SMILES),half-life at 1 µM [1] [h],"viability at 48 h, 100 µM (Cytotoxicity assay (MTT)) [%]",MIC (wt-M. tuberculosis H37Rv) [µg/mL],microsomal CLint at 1 µM (in vitro [2]) [µL/min/mg],half-life at 1 µM (in vitro [3]) [h],half-life at 1 µM (in vitro [4]) [h],hepatocyte CLint at 1 µM (in vitro [4]) [µL/min/1e6 cells],MIC (M^R -S. aureus N315) [µg/mL],Remaining amount of parent compound at 120 min [5] [%],microsomal CLint at 1 µM (in vitro [6]) [µL/min/mg],microsomal CLint at 1 µM (in vitro [7]) [µL/min/mg],MIC (wt-S. aureus Newman; NEWMAN) [µg/mL],MIC (M^R/V^R-S. aureus Mu50) [µg/mL],"half-life at 1 µM (in vitro [8]; CD-1, mouse) [h]",half-life at 1 µM (in vitro [8]; human) [h],MIC (Rif^R-S. aureus Newman) [µg/mL],"fraction unbound at 10 µM (in vitro [9]; CD-1, mouse)","fraction unbound at 10 µM (in vitro [9]; Wistar, rat)",fraction unbound at 10 µM (in vitro [9]; human),MIC (E. coli ΔtolC) [µg/mL],other results
COC(=O)N/C=C/CC[C@@H](C)c1cc(O)c(C(=O)/C(C)=C/C=C(\C)CCC(F)(F)F)c(=O)o1 [MYX (8)],~2,44 ± 9,2,21,> 4,> 4,< 3.8,2 to 4,49 ± 13,~11.6,28,2,1 to 2,> 4,> 4,2,0.0036,0.0049,0.0162,4,MIC (E. faecalis DSM-20478): > 64 µg/mL; half-life at 1 µM [10]: 1.13 ± 0.117 h; half-life at 1 µM [11]: 0.867 ± 0.217 h
CO[C@H]1/C=C/O[C@@]2(C)Oc3c(C)c(O)c4c(O)c(c(/C=N/N5CCN(C)CC5)c(O)c4c3C2=O)NC(=O)/C(C)=C\C=C\[C@H](C)[C@H](O)[C@@H](C)[C@@H](O)[C@@H](C)[C@H](OC(C)=O)[C@@H]1C [rifampin],,,0.03,,,,,,,,,,,,,> 64,,,,16,"MIC (M^R -S. aureus N315; methicillin-resistant S. aureus N315, read-out: MIC): 0.0025 µg/mL; MIC (wt-S. aureus Newman; wt-S. aureus Newman, read-out: MIC): 0.005 µg/mL; MIC (M^R/V^R-S. aureus Mu50; methicillin- and vancomycin-resistant S. aureus Mu50, read-out: MIC): > 64 µg/mL; MIC (E. faecalis DSM-20478; E. faecalis DSM-20478, read-out: MIC): 1 µg/mL"
COC(=O)N/C=C/CC[C@@H](C)c1cc(O)c(C(=O)/C(C)=C/C=C(\C)c2ccoc2)c(=O)o1 [compound 14],,,,,,,,,,,,,,,,,,,,,decomposition during fermentation and isolation [12]: highly susceptible to rapid decomposition
"CCC/C(C)=C/C=C(\C)C(=O)c1c(O)cc([C@H](C)CC/C=C/NC(=O)OC)oc1=O [MYX A (1), myxopyronins A]",~2,39 ± 6,4,76,> 4,> 4,< 3.8,4,51 ± 12,~11.6,157,2 to 4,1 to 2,> 4,> 4,2,0.0026,0.0054,0.0107,1 to 2,MIC (E. faecalis DSM-20478): > 64 µg/mL; half-life at 1 µM [10]: 0.317 ± 0.0667 h; half-life at 1 µM [11]: 0.122 ± 0.0417 h; Liver microsomes Clint [13]: 211 ± 37 µL/min/mg
CCCC/C(C)=C/C=C(\C)C(=O)c1c(O)cc([C@H](C)CC/C=C/NC(=O)OC)oc1=O [MYX B (2)],,,,,,,,,,,,,,,,,,,,,half-life in human liver microsomes [14]: 3 min
